Details: 1.0% DMSO, 24-hour incubation at ambient temperature, maximum theoretical 100 μM; for pH 2 solubility: 0.1N HCl, first value of the cell; for pH 7 solubility: 1×PBS buffer (pH 7.4), second value of the cell

## CC(C)(C#Cc1ccc(-c2ccc(Cl)c3c(N(C(=O)OCCOP(=O)(O)O)S(C)(=O)=O)nn(CC(F)(F)F)c23)c([C@H](Cc2cc(F)cc(F)c2)NC(=O)Cn2nc(C(F)(F)F)c3c2C(F)(F)[C@@H]2C[C@H]32)n1)S(C)(=O)=O [Compound 100, 2-(phosphonooxy)ethyl (4-chloro-7-(2-((S)-1-(2-((3bS,4aR)-5,5-difluoro-3-(trifluoromethyl)-3b,4,4a,5-tetrahydro-1H-cyclopropa[3,4]cyclopenta[1,2-c]pyrazol-1-yl)acetamido)-2-(3,5-difluorophenyl)ethyl)-6-(3-methyl-3-(methylsulfonyl)but-1-yn-1-yl)pyridin-3-yl)-1-(2,2,2-trifluoroethyl)-1H-indazol-3-yl)(methylsulfonyl)carbamate]
  pH 2 solubility: 2 μM
  pH 7 solubility: 100 μM

## CC(C)(C#Cc1ccc(-c2ccc(Cl)c3c(N(C(=O)OCCCCOP(=O)(O)O)S(C)(=O)=O)nn(CC(F)(F)F)c23)c([C@H](Cc2cc(F)cc(F)c2)NC(=O)Cn2nc(C(F)(F)F)c3c2C(F)(F)[C@@H]2C[C@H]32)n1)S(C)(=O)=O [Compound 102, 4-(phosphonooxy)butyl (4-chloro-7-(2-((S)-1-(2-((3bS,4aR)-5,5-difluoro-3-(trifluoromethyl)-3b,4,4a,5-tetrahydro-1H-cyclopropa[3,4]cyclopenta[1,2-c]pyrazol-1-yl)acetamido)-2-(3,5-difluorophenyl)ethyl)-6-(3-methyl-3-(methylsulfonyl)but-1-yn-1-yl)pyridin-3-yl)-1-(2,2,2-trifluoroethyl)-1H-indazol-3-yl)(methylsulfonyl)carbamate]
  pH 2 solubility: 1 μM
  pH 7 solubility: 100 μM

## CC(C)(C#Cc1ccc(-c2ccc(Cl)c3c(N(C(=O)OCCCCCO)S(C)(=O)=O)nn(CC(F)(F)F)c23)c([C@H](Cc2cc(F)cc(F)c2)NC(=O)Cn2nc(C(F)(F)F)c3c2C(F)(F)[C@@H]2C[C@H]32)n1)S(C)(=O)=O [Compound 103, 5-hydroxypentyl (4-chloro-7-(2-((S)-1-(2-((3bS,4aR)-5,5-difluoro-3-(trifluoromethyl)-3b,4,4a,5-tetrahydro-1H-cyclopropa[3,4]cyclopenta[1,2-c]pyrazol-1-yl)acetamido)-2-(3,5-difluorophenyl)ethyl)-6-(3-methyl-3-(methylsulfonyl)but-1-yn-1-yl)pyridin-3-yl)-1-(2,2,2-trifluoroethyl)-1H-indazol-3-yl)(methylsulfonyl)carbamate]
  pH 2 solubility: 1/1 μM
  pH 7 solubility: 1/1 μM

## CC(C)(C#Cc1ccc(-c2ccc(Cl)c3c(N(C(=O)OCCCCCOP(=O)(O)O)S(C)(=O)=O)nn(CC(F)(F)F)c23)c([C@H](Cc2cc(F)cc(F)c2)NC(=O)Cn2nc(C(F)(F)F)c3c2C(F)(F)[C@@H]2C[C@H]32)n1)S(C)(=O)=O [Compound 104, 5-(phosphonooxy)pentyl (4-chloro-7-(2-((S)-1-(2-((3bS,4aR)-5,5-difluoro-3-(trifluoromethyl)-3b,4,4a,5-tetrahydro-1H-cyclopropa[3,4]cyclopenta[1,2-c]pyrazol-1-yl)acetamido)-2-(3,5-difluorophenyl)ethyl)-6-(3-methyl-3-(methylsulfonyl)but-1-yn-1-yl)pyridin-3-yl)-1-(2,2,2-trifluoroethyl)-1H-indazol-3-yl)(methylsulfonyl)carbamate]
  pH 2 solubility: 1 μM
  pH 7 solubility: 89 μM

## CC(C)(C#Cc1ccc(-c2ccc(Cl)c3c(N(C(=O)OCCOCCOP(=O)(O)O)S(C)(=O)=O)nn(CC(F)(F)F)c23)c([C@H](Cc2cc(F)cc(F)c2)NC(=O)Cn2nc(C(F)(F)F)c3c2C(F)(F)[C@@H]2C[C@H]32)n1)S(C)(=O)=O [Compound 106, 2-(2-(phosphonooxy)ethoxy)ethyl (4-chloro-7-(2-((S)-1-(2-((3bS,4aR)-5,5-difluoro-3-(trifluoromethyl)-3b,4,4a,5-tetrahydro-1H-cyclopropa[3,4]cyclopenta[1,2-c]pyrazol-1-yl)acetamido)-2-(3,5-difluorophenyl)ethyl)-6-(3-methyl-3-(methylsulfonyl)but-1-yn-1-yl)pyridin-3-yl)-1-(2,2,2-trifluoroethyl)-1H-indazol-3-yl)(methylsulfonyl)carbamate]
  pH 2 solubility: 4 μM
  pH 7 solubility: 100 μM

## CC(C)(C#Cc1ccc(-c2ccc(Cl)c3c(N(C(=O)OCCOCCOCCO)S(C)(=O)=O)nn(CC(F)(F)F)c23)c([C@H](Cc2cc(F)cc(F)c2)NC(=O)Cn2nc(C(F)(F)F)c3c2C(F)(F)[C@@H]2C[C@H]32)n1)S(C)(=O)=O [Compound 107, 2-(2-(2-hydroxyethoxy)ethoxy)ethyl (4-chloro-7-(2-((S)-1-(2-((3bS,4aR)-5,5-difluoro-3-(trifluoromethyl)-3b,4,4a,5-tetrahydro-1H-cyclopropa[3,4]cyclopenta[1,2-c]pyrazol-1-yl)acetamido)-2-(3,5-difluorophenyl)ethyl)-6-(3-methyl-3-(methylsulfonyl)but-1-yn-1-yl)pyridin-3-yl)-1-(2,2,2-trifluoroethyl)-1H-indazol-3-yl)(methylsulfonyl)carbamate]
  pH 2 solubility: 4 μM
  pH 7 solubility: 1 μM

## CC(C)(C#Cc1ccc(-c2ccc(Cl)c3c(N(C(=O)OCCOCCOCCOP(=O)(O)O)S(C)(=O)=O)nn(CC(F)(F)F)c23)c([C@H](Cc2cc(F)cc(F)c2)NC(=O)Cn2nc(C(F)(F)F)c3c2C(F)(F)[C@@H]2C[C@H]32)n1)S(C)(=O)=O [Compound 108, 2-(2-(2-(phosphonooxy)ethoxy)ethoxy)ethyl (4-chloro-7-(2-((S)-1-(2-((3bS,4aR)-5,5-difluoro-3-(trifluoromethyl)-3b,4,4a,5-tetrahydro-1H-cyclopropa[3,4]cyclopenta[1,2-c]pyrazol-1-yl)acetamido)-2-(3,5-difluorophenyl)ethyl)-6-(3-methyl-3-(methylsulfonyl)but-1-yn-1-yl)pyridin-3-yl)-1-(2,2,2-trifluoroethyl)-1H-indazol-3-yl)(methylsulfonyl)carbamate]
  pH 2 solubility: 1 μM
  pH 7 solubility: 100 μM

## CC(C)(C#Cc1ccc(-c2ccc(Cl)c3c(N(C(=O)OCCOCCOCCOCCOP(=O)(O)O)S(C)(=O)=O)nn(CC(F)(F)F)c23)c([C@H](Cc2cc(F)cc(F)c2)NC(=O)Cn2nc(C(F)(F)F)c3c2C(F)(F)[C@@H]2C[C@H]32)n1)S(C)(=O)=O [Compound 110, 2-(2-(2-(2-(phosphonooxy)ethoxy)ethoxy)ethoxy)ethyl (4-chloro-7-(2-((S)-1-(2-((3bS,4aR)-5,5-difluoro-3-(trifluoromethyl)-3b,4,4a,5-tetrahydro-1H-cyclopropa[3,4]cyclopenta[1,2-c]pyrazol-1-yl)acetamido)-2-(3,5-difluorophenyl)ethyl)-6-(3-methyl-3-(methylsulfonyl)but-1-yn-1-yl)pyridin-3-yl)-1-(2,2,2-trifluoroethyl)-1H-indazol-3-yl)(methylsulfonyl)carbamate]
  pH 2 solubility: 1 μM
  pH 7 solubility: 100 μM

## CC(C)(C#Cc1ccc(-c2ccc(Cl)c3c(N(C(=O)OCCCS(=O)(=O)O)S(C)(=O)=O)nn(CC(F)(F)F)c23)c([C@H](Cc2cc(F)cc(F)c2)NC(=O)Cn2nc(C(F)(F)F)c3c2C(F)(F)[C@@H]2C[C@H]32)n1)S(C)(=O)=O [Compound 111, 3-(((4-chloro-7-(2-((S)-1-(2-((3bS,4aR)-5,5-difluoro-3-(trifluoromethyl)-3b,4,4a,5-tetrahydro-1H-cyclopropa[3,4]cyclopenta[1,2-c]pyrazol-1-yl)acetamido)-2-(3,5-difluorophenyl)ethyl)-6-(3-methyl-3-(methylsulfonyl)but-1-yn-1-yl)pyridin-3-yl)-1-(2,2,2-trifluoroethyl)-1H-indazol-3-yl)(methylsulfonyl)carbamoyl)oxy)propane-1-sulfonic acid]
  pH 2 solubility: 33 μM
  pH 7 solubility: 42 μM

## CC(C)(C#Cc1ccc(-c2ccc(Cl)c3c(N(C(=O)OCCN4CCOCC4)S(C)(=O)=O)nn(CC(F)(F)F)c23)c([C@H](Cc2cc(F)cc(F)c2)NC(=O)Cn2nc(C(F)(F)F)c3c2C(F)(F)[C@@H]2C[C@H]32)n1)S(C)(=O)=O [Compound 114, 2-morpholinoethyl (4-chloro-7-(2-((S)-1-(2-((3bS,4aR)-5,5-difluoro-3-(trifluoromethyl)-3b,4,4a,5-tetrahydro-1H-cyclopropa[3,4]cyclopenta[1,2-c]pyrazol-1-yl)acetamido)-2-(3,5-difluorophenyl)ethyl)-6-(3-methyl-3-(methylsulfonyl)but-1-yn-1-yl)pyridin-3-yl)-1-(2,2,2-trifluoroethyl)-1H-indazol-3-yl)(methylsulfonyl)carbamate]
  pH 2 solubility: 24 μM
  pH 7 solubility: 1 μM

## C[C@H](OC(=O)N(c1nn(CC(F)(F)F)c2c(-c3ccc(C#CC(C)(C)S(C)(=O)=O)nc3[C@H](Cc3cc(F)cc(F)c3)NC(=O)Cn3nc(C(F)(F)F)c4c3C(F)(F)[C@@H]3C[C@H]43)ccc(Cl)c12)S(C)(=O)=O)C(=O)O [Compound 115, (S)-2-(((4-chloro-7-(2-((S)-1-(2-((3bS,4aR)-5,5-difluoro-3-(trifluoromethyl)-3b,4,4a,5-tetrahydro-1H-cyclopropa[3,4]cyclopenta[1,2-c]pyrazol-1-yl)acetamido)-2-(3,5-difluorophenyl)ethyl)-6-(3-methyl-3-(methylsulfonyl)but-1-yn-1-yl)pyridin-3-yl)-1-(2,2,2-trifluoroethyl)-1H-indazol-3-yl)(methylsulfonyl)carbamoyl)oxy)propanoic acid]
  pH 2 solubility: 1/1 μM
  pH 7 solubility: 1/1 μM

## C[C@@H](OC(=O)N(c1nn(CC(F)(F)F)c2c(-c3ccc(C#CC(C)(C)S(C)(=O)=O)nc3[C@H](Cc3cc(F)cc(F)c3)NC(=O)Cn3nc(C(F)(F)F)c4c3C(F)(F)[C@@H]3C[C@H]43)ccc(Cl)c12)S(C)(=O)=O)C(=O)O [Compound 116, (R)-2-(((4-chloro-7-(2-((S)-1-(2-((3bS,4aR)-5,5-difluoro-3-(trifluoromethyl)-3b,4,4a,5-tetrahydro-1H-cyclopropa[3,4]cyclopenta[1,2-c]pyrazol-1-yl)acetamido)-2-(3,5-difluorophenyl)ethyl)-6-(3-methyl-3-(methylsulfonyl)but-1-yn-1-yl)pyridin-3-yl)-1-(2,2,2-trifluoroethyl)-1H-indazol-3-yl)(methylsulfonyl)carbamoyl)oxy)propanoic acid]
  pH 2 solubility: 1/1 μM
  pH 7 solubility: 1/1 μM
